Literature values as cited in EP4574138A1, “A TABLET COMPOSITION COMPRISING IVACAFTOR” (Sanovel Ilac Sanayi Ve Ticaret Anonim Sirketi, priority 2023, dated 2025).

Conditions: background description of the drug substance

In the case of `CC(C)(C)c1cc(C(C)(C)C)c(NC(=O)c2c[nH]c3ccccc3c2=O)cc1O` [Ivacaftor, N-(2,4-di-tert-butyl-5-hydroxyphenyl)-1,4-dihydro-4-oxoquinoline-3-carboxamide], the “solubility in water (practically insoluble in water)” value is given as less than 0.05 microgram/mL.
